US10953028B2, “Method of treating heterotopic ossification” (THE REGENTS OF THE UNIVERSITY OF MICHIGAN, priority 2015, dated 2021)
“And” between values parts separate entries of the source, which are not always exact repeats. Equal entries are not always repeated.

Key:
[1] = test system: caACVR1fl/fl mice injected with cardiotoxin and Ad.cre; settings: mouse, in vivo
burn/tenotomy mice = assay: Burn/tenotomy trauma-induced HO model (microCT, histology, immunostaining); type: in vivo, mouse; settings: 9 weeks

Structure (SMILES): CO[C@H]1C[C@@H]2CC[C@@H](C)[C@@](O)(O2)C(=O)C(=O)N2CCCC[C@H]2C(=O)O[C@H]([C@H](C)C[C@@H]2CC[C@@H](O)[C@H](OC)C2)CC(=O)[C@H](C)/C=C(\C)[C@@H](O)[C@@H](OC)C(=O)[C@H](C)C[C@H](C)/C=C/C=C/C=C/1C [rapamycin]
- total HO normalized volume [1]: 0.0
- total HO volume [1]: 0.00 mm^3 and 0.0 mm^3
- de novo (soft tissue) HO volume (burn/tenotomy mice; rapamycin 5 mg/kg i.p. every other day, control 1.60 mm^3): 0.81 mm^3
- de novo (soft tissue) HO normalized volume (burn/tenotomy mice; rapamycin 5 mg/kg i.p., control = 1.0): 0.51
